Assay results reported in publication PMC7904743, “WIDOCK: a reactive docking protocol for virtual screening of covalent inhibitors” (Journal of Computer-Aided Molecular Design, 2021).
Where two headings read alike, the source gives them in different places.

Tests used:
CatB [1] = target: T1, CatB (Homo sapiens, UniProt P07858); assay: CatB single point enzyme activity assay (residual activity); settings: read-out: RA
Method: (§1) These fragments were measured in single point enzyme activity assays at 100 μM concentration against MurA and CatB.

[2] = target: T2, Recombinant human microsomal MAO-A (Homo sapiens, UniProt P21397); assay: MAO-A activity assay (fluorimetric, Amplex Red, p-tyramine); type: biochemical; settings: MAO-A residual activity; active if lower than 60%
T2 construct: purchased Sigma Aldrich; host or cells: baculovirus infected insect cells (BTI-TN-5B1-4)
T2 sequence (P21397 1-527): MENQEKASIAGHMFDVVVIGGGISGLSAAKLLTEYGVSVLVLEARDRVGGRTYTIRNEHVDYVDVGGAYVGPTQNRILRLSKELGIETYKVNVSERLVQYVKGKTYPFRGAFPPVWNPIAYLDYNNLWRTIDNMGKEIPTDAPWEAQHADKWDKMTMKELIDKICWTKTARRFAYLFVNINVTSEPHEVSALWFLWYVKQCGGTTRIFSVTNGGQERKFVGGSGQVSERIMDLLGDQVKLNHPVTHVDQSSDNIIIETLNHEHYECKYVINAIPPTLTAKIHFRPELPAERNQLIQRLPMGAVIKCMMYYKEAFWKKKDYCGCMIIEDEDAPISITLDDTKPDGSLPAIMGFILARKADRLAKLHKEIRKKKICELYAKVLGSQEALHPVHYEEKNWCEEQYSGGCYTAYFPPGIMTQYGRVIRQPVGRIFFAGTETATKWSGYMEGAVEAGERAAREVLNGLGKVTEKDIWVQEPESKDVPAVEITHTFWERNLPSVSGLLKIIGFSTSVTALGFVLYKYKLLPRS
Method: The effects of the test compounds on MAO-A were investigated using a fluorimetric assay, following a previously described methodology. The inhibitory activity of the compounds was evaluated by their effects on the production of hydrogen peroxide (H2O2) from p-tyramine. The production of H2O2 was detected using Amplex Red reagent in the presence of horseradish peroxidase, where a highly sensitive fluorescent product, resorufin, is produced at stoichiometric amounts. Recombinant human microsomal MAO-A enzyme expressed in baculovirus infected insect cells (BTI-TN-5B1-4), horse-radish peroxidase (type II, lyophilized powder), and p-tyramine hydrochloride were obtained from Sigma Aldrich. 10-Acetyl-3,7-dihydroxyphenoxazine (Amplex Red reagent) was synthesized as described in the literature.
Briefly, 100 µL 50 mM sodium phosphate buffer (pH 7.4, 0.05% Triton X-114) containing the compounds and MAO-A were incubated for 30 min at 37 °C in a flat-bottomed black 96-well microplate, and placed in a dark microplate reader chamber. After the pre-incubation, the reaction was started by adding the final concentrations of 200 µM Amplex Red reagent, 2 U/mL horseradish peroxidase, and 1 mM p-tyramine (final volume, 200 µL). The production of resorufin was quantified based on the fluorescence generated (λex = 530 nm, λem = 590 nm) at 37 °C over a period of 30 min, during which time the fluorescence increased linearly. For control experiments, DMSO was used instead of the appropriate dilutions of the compounds in DMSO. To determine the blank value (b), phosphate-buffered solution replaced the enzyme solution. The initial velocities were calculated from the trends obtained, with each measurement carried out in duplicate. The specific fluorescence emission to obtain the final result was calculated after subtraction of the blank activity (b).

MurA [3] = target: T3, MurA (Escherichia coli, UniProt P0A749); settings: residual activity at 100 μM, single point; cited from earlier work
CatB [4] = target: T1, CatB; set-up: method as in PMID 30321804; settings: residual activity at 100 μM, single point; cited from earlier work
MurA [5] = target: T3, MurA; assay: biochemical; settings: read-out: RA
Method: as §1

OTUB2 = OTUB2 protein labeling; experimental actives if % labeling higher than 50%; cited from earlier work
NUDT7 = settings: protein labeling at 200 μM; experimental actives if % labeling higher than 50%; cited from earlier work
[6] = thiol reactivity, cited from earlier work
[7] = natural log of average kinetic rate constant
[8] = natural log of average rate constant

T3 sequence (P0A749 whole entry): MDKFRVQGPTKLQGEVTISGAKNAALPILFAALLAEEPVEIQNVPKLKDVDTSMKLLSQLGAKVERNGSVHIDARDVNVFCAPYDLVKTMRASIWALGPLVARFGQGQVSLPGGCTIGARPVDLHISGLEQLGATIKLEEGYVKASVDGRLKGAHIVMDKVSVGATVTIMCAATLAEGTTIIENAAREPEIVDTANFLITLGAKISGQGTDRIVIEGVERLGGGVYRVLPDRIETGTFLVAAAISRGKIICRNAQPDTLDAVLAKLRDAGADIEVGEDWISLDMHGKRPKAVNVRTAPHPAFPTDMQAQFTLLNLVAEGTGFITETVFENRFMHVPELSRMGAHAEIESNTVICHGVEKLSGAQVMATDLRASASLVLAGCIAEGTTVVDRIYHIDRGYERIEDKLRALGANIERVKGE

| Structure (SMILES) | remaining activity at 100 µM (CatB [1]) | RA [2] | MurA RA (%) (MurA [3]) | CatB RA (%) (CatB [4]) | remaining activity at 100 µM (MurA [5]) | OTUB2 % labeling (OTUB2) | NUDT7 % labeling (NUDT7) | ln(avg k) [6, 7] | ln(avg k) [6, 8] |
| --- | --- | --- | --- | --- | --- | --- | --- | --- | --- |
| COC(=O)/C=C/C(=O)OC [Compound 25, COC(=O)/C=C/C(=O)OC] | 106% | 80% | 50% | 106% | 50% |  |  |  |  |
| COc1ccc(C)cc1NC(=O)CCl [PCM-0103043, COc1ccc(C)cc1NC(=O)CCl] |  |  |  |  |  | 27% | 6% | -16.699 | -16.699 |
| O=C(CCl)NC1CCOCC1 [PCM-0103045, O=C(CCl)NC1CCOCC1] |  |  |  |  |  | 0% | 0% | -16.016 | -16.016 |
| CC(C)(C)n1ncc2c1CCCC2NC(=O)CCl (stereo not drawn) [PCM-0103046, CC(C)(C)n1ncc2c1CCCC2NC(=O)CCl] |  |  |  |  |  | 36% | 0% | -16.467 | -16.467 |
| O=C(CCl)NCc1cccc(F)c1 [PCM-0103047, O=C(CCl)NCc1cccc(F)c1] |  |  |  |  |  | 43% | 0% | -16.636 | -16.636 |
| COC(=O)c1cccc(NC(=O)CCl)c1 [PCM-0103048, COC(=O)c1cccc(NC(=O)CCl)c1] |  |  |  |  |  | 87% | 0% | -15.795 | -15.795 |
| O=C(CCl)NCc1cc(Br)cs1 [PCM-0103050, O=C(CCl)NCc1cc(Br)cs1] |  |  |  |  |  | 84% | 13% | -16.422 | -16.422 |
| CCC1c2ccsc2CCN1C(=O)CCl (stereo not drawn) [PCM-0103051, CCC1c2ccsc2CCN1C(=O)CCl] |  |  |  |  |  | 0% | 30% | -15.594 | -15.594 |
| Cc1nc(-c2ccc(C)c(NC(=O)CCl)c2)n[nH]1 [PCM-0103052, Cc1nc(-c2ccc(C)c(NC(=O)CCl)c2)n[nH]1] |  |  |  |  |  | 9% | 12% | -16.586 | -16.586 |
| O=C(CCl)NC1CCN(C2CC2)CC1 [PCM-0103055, O=C(CCl)NC1CCN(C2CC2)CC1] |  |  |  |  |  | 0% | 0% | -16.125 | -16.125 |
| Cc1cc(NC(=O)CCl)n(C(C)(C)C)n1 [PCM-0103057, Cc1cc(NC(=O)CCl)n(C(C)(C)C)n1] |  |  |  |  |  | 0% | 0% | -16.148 | -16.148 |
| CC1(C)CCCN1C(=O)CCl [PCM-0103060, CC1(C)CCCN1C(=O)CCl] |  |  |  |  |  | 0% | 0% | -15.914 | -15.914 |
| O=C(CCl)NNC(=O)C1CCC1 [PCM-0103061, O=C(CCl)NNC(=O)C1CCC1] |  |  |  |  |  | 14% | 28% | -15.962 | -15.962 |
| O=C(CCl)NC1CCSC1=O (stereo not drawn) [PCM-0103062, O=C(CCl)NC1CCSC1=O] |  |  |  |  |  | 0% | 0% | -17.032 | -17.032 |
| O=C(CCl)N1CCN(Cc2ccccc2)CC1 [PCM-0103063, O=C(CCl)N1CCN(Cc2ccccc2)CC1] |  |  |  |  |  | 35% | 7% | -16.178 | -16.178 |
| O=C(CCl)N(C1CCCC1)C1CC1 [PCM-0103064, O=C(CCl)N(C1CCCC1)C1CC1] |  |  |  |  |  | 0% | 0% | -16.942 | -16.942 |
| O=C(CCl)NCC1CCC1 [PCM-0103065, O=C(CCl)NCC1CCC1] |  |  |  |  |  | 0% | 0% | -17.462 | -17.462 |
| Cc1cc(NC(=O)CCl)n(-c2ccccc2F)n1 [PCM-0103066, Cc1cc(NC(=O)CCl)n(-c2ccccc2F)n1] |  |  |  |  |  | 44% | 0% | -15.986 | -15.986 |
| O=C(CCl)N1CCC(c2nc3ccccc3s2)CC1 [PCM-0103068, O=C(CCl)N1CCC(c2nc3ccccc3s2)CC1] |  |  |  |  |  | 0% | 65% | -15.772 | -15.772 |
| COCC(=O)NNC(=O)CCl [PCM-0103070, COCC(=O)NNC(=O)CCl] |  |  |  |  |  | 0% | 0% | -17.475 | -17.475 |
| O=C(CCl)N1CCCc2cccc(F)c21 [PCM-0103071, O=C(CCl)N1CCCc2cccc(F)c21] |  |  |  |  |  | 0% | 40% | -16.007 | -16.007 |
| Cc1ccsc1CNC(=O)CCl [PCM-0103075, Cc1ccsc1CNC(=O)CCl] |  |  |  |  |  | 55% | 0% | -16.632 | -16.632 |
| O=C(CCl)Nc1ccon1 [PCM-0103077, O=C(CCl)Nc1ccon1] |  |  |  |  |  | 30% | 0% | -16.220 | -16.220 |
| O=C(CCl)NCc1ccc(Cl)s1 [PCM-0103080, O=C(CCl)NCc1ccc(Cl)s1] |  |  |  |  |  | 79% | 0% | -16.506 | -16.506 |
| CN(Cc1cc(Br)cs1)C(=O)CCl [PCM-0103081, CN(Cc1cc(Br)cs1)C(=O)CCl] |  |  |  |  |  | 0% | 0% | -15.601 | -15.601 |
| Cc1ccc(N(C(=O)CCl)C2C=CS(=O)(=O)C2)cc1C (stereo not drawn) [PCM-0103082, Cc1ccc(N(C(=O)CCl)C2C=CS(=O)(=O)C2)cc1C] |  |  |  |  |  | 0% | 15% | -15.512 | -15.512 |
